Data on 14 substances can be found in article PMC12722964, “Immunogenicity risk assessment of peptide-related impurities identified in generic teriparatide products” (Frontiers in Immunology, 2025).

A short description of series [1]: Overall risk based on in silico and in vitro results. Conditions: EpiMatrix and JanusMatrix scores compared with naïve donor T-cell assay. From the text:
Table 4 Overall risk based on in silico and in vitro results. | column: Overall risk

The test system of series [2] is eight class II Supertype Alleles (HLA-DRB1). Description: Class II HLA binding assay, summary over the panel of eight alleles. The arrangement: species or system human. On the procedure:
(§1) Class II HLA binding assays used in these studies measure the binding affinity of a target peptide to HLA-DRB1*0101, HLA-DRB1*0301, HLA-DRB1*0401, HLA-DRB1*0701, HLA-DRB1*0901, HLA-DRB1*1101, HLA-DRB1*1301, and HLA-DRB1*1501. The HLA binding assay was originally described by Steere et al. ([21]) and adapted by EpiVax ([22], [23]). Briefly, unlabeled test peptides were incubated overnight to equilibrium with a soluble HLA-DR molecule (Benaroya Research Institute, Seattle, WA, USA) and a biotinylated, allele-specific competitor peptide of known binding affinity. The binding reaction was then neutralized with a buffered pH change, and the peptide-HLA complexes were transferred to a 96-well plate coated with a pan-HLA-DR antibody, clone L243 (BioLegend, San Diego, CA, United States), and incubated overnight. The following day, plates were resolved with the addition of europium-labeled streptavidin (Perkin-Elmer, Waltham, MA, USA). An indirect measure of binding was determined by time-resolved fluorescence. Each peptide was evaluated in triplicate over a range of seven concentrations. The percent inhibition values for each experimental peptide across this concentration range were used to calculate an IC50, the concentration at which the peptide inhibits 50% of the labeled competitor peptide.
Following the in silico analysis, epitope binding predictions by EpiMatrix were evaluated in vitro by measuring the binding affinity of each impurity peptide relative to the corresponding N- or C-terminal portion of the TPT API, in vitro. The class II HLA-DRB1 binding assay was adapted from an assay originally described by Steere et al. ([21]) that provides an indirect measurement of peptide-HLA affinity. Class II HLA binding peptides typically range in length from 12–20 amino acids; however, the core HLA binding region is nine amino acids. The class II HLA binding groove is open-ended, and the additional flanking residues on either end of the core binding motif stabilize the peptide: HLA binding interaction. […]

The target in the next series is T1, HLA-DRB1*0101 (Homo sapiens, UniProt P01903+P01911, A100R/D57E/F55L/F60I/F76Y/I96L/L162R/M171V/P40L/Q125E/R42F/V115G/Y59C).
T1 construct: incubated overnight to equilibrium with a soluble HLA-DR molecule; purchased Benaroya Research Institute, Seattle, WA, USA
Nature of the series: Class II HLA binding assay. The following applies: Figure 6; shortened peptides of Table 3; category by IC50; read-out: HLA binding affinity category, DRB1*0101. On the procedure: as §1
(§2) Following the in silico analysis, epitope binding predictions by EpiMatrix were evaluated in vitro by measuring the binding affinity of each impurity peptide relative to the corresponding N- or C-terminal portion of the TPT API, in vitro. The class II HLA-DRB1 binding assay was adapted from an assay originally described by Steere et al. ([21]) that provides an indirect measurement of peptide-HLA affinity. Class II HLA binding peptides typically range in length from 12–20 amino acids; however, the core HLA binding region is nine amino acids. The class II HLA binding groove is open-ended, and the additional flanking residues on either end of the core binding motif stabilize the peptide: HLA binding interaction. Targeted binding motifs were properly centered within the shorter length peptides synthesized for these binding studies (Table 3).

In a further series the target is T2, HLA-DRB1*0301 (Homo sapiens, UniProt P01903+P01911, A100K/A102G/A103R/A169T/F55Y/I96L/K41T/L162R/M171V/P40S/Q125H/Q178H/Q39Y/R42S/S66N/T106N/T262R/W38E/Y61H).
T2 construct: incubated overnight to equilibrium with a soluble HLA-DR molecule; purchased Benaroya Research Institute, Seattle, WA, USA
Description: Class II HLA binding assay. Conditions: Figure 6; shortened peptides of Table 3; category by IC50; read-out: HLA binding affinity category, DRB1*0301. Here is the method:
as §1, §2

The next series concerns the target T3, HLA-DRB1*0401 (Homo sapiens, UniProt P01903+P01911, A100K/A169T/F76Y/I96L/K127E/L162R/M171V/N62H/P40V/Q125Y/R42H/S133A/S149N/S66Y/V115G/V209L/W38E).
T3 construct: incubated overnight to equilibrium with a soluble HLA-DR molecule; purchased Benaroya Research Institute, Seattle, WA, USA
Nature of the series: Class II HLA binding assay. The following applies: Figure 6; shortened peptides of Table 3; category by IC50; read-out: HLA binding affinity category, DRB1*0401. Here is the method:
as §1, §2

Another series concerns the target HLA-DRB1*0701 (Homo sapiens, UniProt P01903+P01911, A100R/A102G/A103Q/D57E/D86V/E43K/F76Y/K127E/L162R/M171V/P40G/Q125H/Q99D/R33Q/R42Y/R54Q/S133A/S66F/T210M/V115G/Y107V/Y59L/Y89S). Description: Class II HLA binding assay. The following applies: Figure 6; shortened peptides of Table 3; category by IC50; read-out: HLA binding affinity category, DRB1*0701. Here is the method:
as §1, §2

Another series concerns the target HLA-DRB1*0901 (Homo sapiens, UniProt P01903+P01911, A100R/A103E/D57H/D86V/F55Y/F60I/F76Y/I96F/K127E/L162R/M171V/P40D/Q125H/Q99R/R33Q/R42F/S133A/S66N/T210M/V115G/W38K/Y107V/Y59G/Y89S). Nature of the series: Class II HLA binding assay. The following applies: Figure 6; shortened peptides of Table 3; category by IC50; read-out: HLA binding affinity category, DRB1*0901. On the procedure: as §1, §2

The target of a further series is HLA-DRB1*1101 (Homo sapiens, UniProt P01903+P01911, A100R/A169T/A87E/I96F/K41T/L162R/M171V/P40S/Q125H/Q178H/Q39Y/Q99D/R42S/S66Y/T262R/V115G/W38E). Description: Class II HLA binding assay. Conditions: Figure 6; shortened peptides of Table 3; category by IC50; read-out: HLA binding affinity category, DRB1*1101. On the procedure: as §1, §2
The target of the next series is HLA-DRB1*1301 (Homo sapiens, UniProt P01903+P01911, A100E/A169T/K41T/L162R/M171V/P40S/Q125H/Q178H/Q39Y/Q99D/R42S/S66N/T262R/W38E/Y61H). Description: Class II HLA binding assay. Conditions: Figure 6; shortened peptides of Table 3; category by IC50; read-out: HLA binding affinity category, DRB1*1301. Here is the method:
as §1, §2

A further series addresses T4, HLA-DRB1*1501 (Homo sapiens, UniProt P01903+P01911).
T4 construct: incubated overnight to equilibrium with a soluble HLA-DR molecule; purchased Benaroya Research Institute, Seattle, WA, USA
Description: Class II HLA binding assay. The following applies: Figure 6; shortened peptides of Table 3; category by IC50; read-out: HLA binding affinity category, DRB1*1501. Here is the method: as §1, §2

A further series concerns B cells. Further details: method as in 2 sources, one per row (each row's own in cited_ref): ref Howard et al. ([38]) ||| ref [37] = [37]; 37 Howard KE . ( 2025 ). Alternative models: from humanized mice to microphysiological systems and beyond , in: Scientific and Regulatory Considerations for Assessment of Immunogenicity Risk for Gener. The following applies: cited from earlier work.

For series [3] the following is noted: human, in vivo; cited from earlier work. From the text:
Teriparatide (TPT), sold under the brand name Forteo®, is a 34-amino acid peptide drug produced by recombinant DNA (rDNA) technology. Synthetic peptide versions of the drug have recently been approved for the generic drug market. TPT consists of the biologically active N-terminal 34 amino acids of human parathyroid hormone (PTH) (Figure 1) and is approved in the USA for the treatment of postmenopausal osteoporosis in patients at high risk of bone fracture. Since TPT’s sequence is identical to that of the N-terminus of PTH, the development of antibodies that cross-react with the endogenous hor ... || TPT has a history of having low immunogenicity in the clinic, with only 2.8% of treated patients developing antidrug antibodies after 12 months of treatment. Consistent with this, TPT induced IFN-γ production by responding T cells in fewer than 20% of donor cell preparations ex vivo. However, because different impurities can arise from different methods of peptide synthesis and production, it is important to understand whether any peptide-related impurities could contribute to the immunogenicity risk of generic TPT. Here, we performed an immunogenicity risk assessment for several peptide-relat ...

Ends that are not written are not given here. Some results are limits rather than exact numbers.

Sequence of HLA-DRB1*1101 (P01903 26-254 limits assumed, other chains not shown): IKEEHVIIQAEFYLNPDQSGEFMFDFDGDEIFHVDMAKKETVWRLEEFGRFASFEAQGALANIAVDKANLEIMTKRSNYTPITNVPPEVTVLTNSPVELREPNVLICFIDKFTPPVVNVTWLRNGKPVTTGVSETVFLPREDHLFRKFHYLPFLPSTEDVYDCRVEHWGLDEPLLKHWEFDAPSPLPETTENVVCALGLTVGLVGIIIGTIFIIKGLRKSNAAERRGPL

For the substance “SVSEIQLMHN–GKHLNSMERVEWLRKKLQDVHNF [DES-LEU11_TERIPARATIDE, observed teriparatide impurity, deletion of Leu11]”, the Overall risk result in series [1] is “High”.

Consider “SVSEIQLMHNLGKHLNSMERVEWLR(K-Ac)KLQDVHNF [LYS-AC26_TERIPARATIDE, observed teriparatide impurity, Lys26 acetylated]”, for which the “classification in the HLA binding assays” value in series [2] (shorter peptide with the modification centered) was “nonbinder”. Further, the Overall risk result in [1] is on record as “High”.

“SVSEIQLMHNLGKHLNSMERVEWLRKK–QDVHNF [DES-LEU28_TERIPARATIDE, observed teriparatide impurity, deletion of Leu28]”: in [1], the Overall risk result is reported as “Low”.

As to “MERVEWLRK(Ac)KLQDVHNF [LYS-AC26_TPT (18-34)]”, the IC50 on HLA-DRB1*0101, at HLA-DRB1*0301, on HLA-DRB1*0401, on HLA-DRB1*0701, on HLA-DRB1*0901 and at HLA-DRB1*1101 was greater than 100 µM throughout. Besides, the IC50 on HLA-DRB1*1301 and on HLA-DRB1*1501 was greater than 100 µM throughout.

Regarding “MERVEWLRKKLQDVHNF-OH [API_TPT (18-34) C-term]”, the IC50 on HLA-DRB1*0101 is greater than 100 µM; on HLA-DRB1*0301 it was greater than 100 µM; at HLA-DRB1*0401, greater than 100 µM; at HLA-DRB1*0701, greater than 100 µM; on HLA-DRB1*0901, greater than 100 µM; on HLA-DRB1*1101, 0.1 to 1 µM. For the same substance, the IC50 on HLA-DRB1*1301 is 1 to 10 µM; at HLA-DRB1*1501 it was no less than 100 µM. In series [2] (of eight alleles evaluated, negligible to high affinity counted as bound), the “number of the eight class II Supertype Alleles bound” value was “three”.

As for “SVSEIQLM–NLGKHLNSMERVEWLRKKLQDVHNF [DES-HIS9_TERIPARATIDE, observed teriparatide impurity, deletion of His9]”, the Overall risk result in [1] is reported as “High”.

For “SVSEIQLMHNLLGKHLNSMERVEWLRKKLQDVHNF [ENDO-LEU11_TERIPARATIDE, theoretical teriparatide impurity predicted by WhIM, duplication of Leu11]”, in series [1], the Overall risk entry is recorded as “High”.

Turning to “SVSEIQLMHNL–KHLNSMERVEWLRKKLQDVHNF [DES-GLY12_TERIPARATIDE, theoretical teriparatide impurity predicted by WhIM, deletion of Gly12]”, the Overall risk result in series [1] is recorded as “High”.

Regarding “SVSEIQLMHNLGK–LNSMERVEWLRKKLQDVHNF [DES-HIS14_TERIPARATIDE, observed teriparatide impurity, deletion of His14]”, the Overall risk result in [1] is “High”.

In the case of “MERVEWLRKKQDVHNF [DES-LEU28_TPT (18-33)]”, the IC50 at HLA-DRB1*0101 is greater than 100 µM; on HLA-DRB1*0301 it was greater than 100 µM; on HLA-DRB1*0401, greater than 100 µM; at HLA-DRB1*0701 it was greater than 100 µM; at HLA-DRB1*0901 it was greater than 100 µM; at HLA-DRB1*1101, 1 to 10 µM. The IC50 is 0.1 to 1 µM on HLA-DRB1*1301 and no less than 100 µM at HLA-DRB1*1501.

As to “SVSEIQ–MHNLGKHLNSMERVEWLRKKLQDVHNF [DES-LEU7_TERIPARATIDE, observed teriparatide impurity, deletion of Leu7]”, the “binding affinity compared to the corresponding region of the API” value in series [2] (impurity peptides alongside N-term or C-term TPT API peptide) was “decreased or equivalent binding affinity”. Also, in series [1], the Overall risk entry was “Medium”.

For salmon calcitonin [SCT], the “long-term memory B cells and plasma cells” value in the series with B cells (SCT-treated mice compared to TPT, ref [37]) is listed as “Increased numbers”.

With “SVSEIQLMHNLG–HLNSMERVEWLRKKLQDVHNF [DES-LYS13_TERIPARATIDE, observed teriparatide impurity, deletion of Lys13]”, in [1], the Overall risk result is given as “High”.

For “SVSEIQLMHNLGKHLNSMERVEWLRKKLQDVHNF [TERIPARATIDE, teriparatide]”, in series [1], the Overall risk entry is “Low”. The “treated patients developing antidrug antibodies (ADA)” value in series [3] is reported as 2.8%. In the series on B cells (at multiple doses, in contrast to SCT, ref Howard et al. ([38])), the “immunogenicity (as measured by activation of B cells)” value is listed as “lower immunogenicity”.
